# Measurements reported in PubChem BioAssay AID1963981 (Molecular Pharmacology Branch, DTP, NCI, 2024).
# Test system: 354836-022-R-J1-PDC multicell spheroid viability
# Assay: Anticancer human tumor 354836-022-R-J1-PDC patient-derived head and neck squamous cell carcinoma cell line growth inhibition [PI3K]
# Settings: for IC50: curve of first compound; for viability, T/C: stronger effect = lower value
# Description: Combinatorial screen of targeted agents with the PI3K inhibitors inavolisib, alpelisib, duvelisib, and copanlisib in multi-cell type tumor spheroids
# A high-throughput screen of multi-cell type tumor spheroids was designed to identify active combinations of targeted small molecules and PI3K pathway inhibitors. Complex spheroids include a stromal component modeled by human endothelial cells (HUVEC) and fibroblasts modeled by human mesenchymal stem cells (MSCs). The concentration ranges selected for each drug and investigational agent were based upon clinically achievable concentrations if the clinical Cmax of the agent was known.
# Compounds. The drugs and investigational agents: inavolisib (NSC800729), alpelisib (NSC765974), duvelisib (NSC772469), copanlisib (NSC816437), ipatasertib (NSC767898), afuresertib (NSC778305), talazoparib (NSC767125), sapanisertib (NSC764658), selumetinib (NSC741078), tovorafenib (DAY101, NSC766906), vemurafenib (NSC761431), ravoxertinib (NSC781343), sotorasib (NSC818433), MRTX1133 (NSC 836407), abemaciclib (NSC 768073), palbociclib (NSC758247), venetoclax (NSC 766270), SY5609 (NSC837396), enzalutamide (NSC755605), and darolutamide (NSC825331), were obtained from the National Cancer Institute (NCI) Developmental Therapeutics Program Chemical Repository. The FDA-approved anticancer drug set is available from the NCI Developmental Therapeutics Program. […] The stock solutions were prepared in dimethyl sulfoxide (DMSO, Sigma-Aldrich, St. Louis, MO, cat. D2650) at 800-fold the tested concentration and stored at -70 degrees C prior to their use. All drugs and investigational agents were tested over a range starting from a high concentration at or near the clinical Cmax and decreasing in half-log increments. If the clinical Cmax for an agent had not been determined, the highest concentration tested was 10 microM.
# Cell Culture. All cells were maintained in an incubator at 37 degrees C and 5% CO2 with 95% humidity. The PDC lines were cultured according to standard operating procedures established by the NCI PDMR (https://pdmr.cancer.gov/sops/default.htm). All PDCs were thawed and cultured in Matrigel-coated flasks prepared with a working solution of 1X Ham's F-12 nutrient mix, without supplementation (Invitrogen, Waltham, MA, cat. 11765054), 100 U/mL penicillin-streptomycin (Invitrogen, cat. 15140122), and 2.5% Matrigel (Corning Inc., Corning, NY, cat. 354248) for the first three passages. The 354836-022-R-J1-PDC, 475296-252-R-J1-PDC, and 997726-040-R-J2-PDC lines were cultured in 6A media, which includes advanced DMEM/F-12 (Thermo Fisher Scientific, cat. 12634028), 10 mM HEPES (Thermo Fisher Scientific, cat. 15630080), 1X GlutaMAX supplement (Thermo Fisher Scientific, cat. 35050061), 0.1 mg/mL primocin (InvivoGen, San Diego, CA, cat. ant-pm-2), 10% defined fetal bovine serum, heat inactivated (HyClone Laboratories Inc., Logan, UT, cat. SH30070.03HI), 50% L-WRN conditioned media (ATCC, cat. CRL-3276), 1.25 mM N-Acetyl-L-cysteine (Sigma-Aldrich, cat. A9165), 10 mM nicotinamide (Sigma-Aldrich, cat. N0636), 1X B-27 supplement (Thermo Fisher Scientific, cat. 17504044), 1X N-2 supplement (Thermo Fisher Scientific, cat. 17502048), and 10 microM Y-27632 dihydrochloride (Tocris Bioscience, Bristol, United Kingdom, cat. 1254). The 624824-186-R-J2-PDC line was cultured in 6C/Colon 1B media, which includes all 6A media components plus 50 ng/mL human EGF recombinant protein (Thermo Fisher Scientific, cat. PHG0311). […]
# [1] = second compound 0.00316 µM, first compound 0.000316 µM
# [2] = second compound 0.00316 µM, first compound 0.001 µM
# [3] = second compound 0.00316 µM, first compound 0.00316 µM
# [4] = second compound 0.00316 µM, first compound 0.01 µM
# [5] = second compound 0.00316 µM, first compound 0.0316 µM
# [6] = second compound 0.00316 µM, first compound 0.1 µM
# [7] = second compound 0.01 µM, first compound 0.000316 µM
# [8] = second compound 0.01 µM, first compound 0.001 µM
# [9] = second compound 0.01 µM, first compound 0.00316 µM
# [10] = second compound 0.01 µM, first compound 0.01 µM
# [11] = second compound 0.01 µM, first compound 0.0316 µM
# [12] = second compound 0.01 µM, first compound 0.1 µM
# [13] = second compound 0.0316 µM, first compound 0.000316 µM
# [14] = second compound 0.0316 µM, first compound 0.001 µM
# [15] = second compound 0.0316 µM, first compound 0.00316 µM
# [16] = second compound 0.0316 µM, first compound 0.01 µM
# [17] = second compound 0.0316 µM, first compound 0.0316 µM
# [18] = second compound 0.0316 µM, first compound 0.1 µM
# [19] = second compound 0.1 µM, first compound 0.000316 µM
# [20] = second compound 0.1 µM, first compound 0.001 µM
# [21] = second compound 0.1 µM, first compound 0.00316 µM
# [22] = second compound 0.1 µM, first compound 0.01 µM
# [23] = second compound 0.1 µM, first compound 0.0316 µM
# [24] = second compound 0.1 µM, first compound 0.1 µM
# [25] = second compound 0.316 µM, first compound 0.000316 µM
# [26] = second compound 0.316 µM, first compound 0.001 µM
# [27] = second compound 0.316 µM, first compound 0.00316 µM
# [28] = second compound 0.316 µM, first compound 0.01 µM
# [29] = second compound 0.316 µM, first compound 0.0316 µM
# [30] = second compound 0.316 µM, first compound 0.1 µM
# [31] = second compound 1 µM, first compound 0.000316 µM
# [32] = second compound 1 µM, first compound 0.001 µM
# [33] = second compound 1 µM, first compound 0.00316 µM
# [34] = second compound 1 µM, first compound 0.01 µM
# [35] = second compound 1 µM, first compound 0.0316 µM
# [36] = second compound 1 µM, first compound 0.1 µM
# 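Note: spheroids exposed to agents for seven days before the viability read.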
smiles,measurement,setting,value
CC(=O)c1c(C)c2cnc(Nc3ccc(N4CCNCC4)cn3)nc2n(C2CCCC2)c1=O + CC(Nc1ccc2c(c1)OCCn1cc(N3C(=O)OCC3C(F)F)nc1-2)C(N)=O,IC50,second compound 0.00316 µM,> 100 nM
same,IC50,second compound 0.01 µM,> 100 nM
same,IC50,second compound 0.0316 µM,> 100 nM
same,IC50,second compound 0.1 µM,> 100 nM
same,IC50,second compound 0.316 µM,> 100 nM
same,IC50,second compound 1 µM,> 100 nM
same,"viability, T/C",[1],95.6%
same,"viability, T/C",[2],98%
same,"viability, T/C",[3],109%
same,"viability, T/C",[4],82.5%
same,"viability, T/C",[5],102%
same,"viability, T/C",[6],98.7%
same,"viability, T/C",[7],99%
same,"viability, T/C",[8],94.3%
same,"viability, T/C",[9],102%
same,"viability, T/C",[10],90%
same,"viability, T/C",[11],94.8%
same,"viability, T/C",[12],105%
same,"viability, T/C",[13],85.2%
same,"viability, T/C",[14],109%
same,"viability, T/C",[15],92.2%
same,"viability, T/C",[16],97.8%
same,"viability, T/C",[17],98.4%
same,"viability, T/C",[18],101%
same,"viability, T/C",[19],80.7%
same,"viability, T/C",[20],84.2%
same,"viability, T/C",[21],87%
same,"viability, T/C",[22],93%
same,"viability, T/C",[23],96.8%
same,"viability, T/C",[24],80.3%
same,"viability, T/C",[25],65.8%
same,"viability, T/C",[26],78.9%
same,"viability, T/C",[27],70.8%
same,"viability, T/C",[28],68%
same,"viability, T/C",[29],70.7%
same,"viability, T/C",[30],72.4%
same,"viability, T/C",[31],65.5%
same,"viability, T/C",[32],60%
same,"viability, T/C",[33],54.4%
same,"viability, T/C",[34],65.7%
same,"viability, T/C",[35],62.7%
same,"viability, T/C",[36],63.6%
CC(C)n1nc(-c2ccc3oc(N)nc3c2)c2c(N)ncnc21 + CC(Nc1ccc2c(c1)OCCn1cc(N3C(=O)OCC3C(F)F)nc1-2)C(N)=O,IC50,second compound 0.00316 µM,13.9 nM
same,IC50,second compound 0.01 µM,11.5 nM
same,IC50,second compound 0.0316 µM,7.62 nM
same,IC50,second compound 0.1 µM,10.6 nM
same,IC50,second compound 0.316 µM,5.01 nM
same,IC50,second compound 1 µM,1.86 nM
same,"viability, T/C",[1],99.9%
same,"viability, T/C",[2],77%
same,"viability, T/C",[3],80.6%
same,"viability, T/C",[4],53.9%
same,"viability, T/C",[5],35.2%
same,"viability, T/C",[6],12.7%
same,"viability, T/C",[7],104%
same,"viability, T/C",[8],76%
same,"viability, T/C",[9],74.5%
same,"viability, T/C",[10],51.3%
same,"viability, T/C",[11],37.8%
same,"viability, T/C",[12],13.1%
same,"viability, T/C",[13],90.2%
same,"viability, T/C",[14],78.8%
same,"viability, T/C",[15],59.2%
same,"viability, T/C",[16],50.5%
same,"viability, T/C",[17],25.9%
same,"viability, T/C",[18],9.5%
same,"viability, T/C",[19],74.1%
same,"viability, T/C",[20],81.6%
same,"viability, T/C",[21],71.3%
same,"viability, T/C",[22],49.4%
same,"viability, T/C",[23],25.4%
same,"viability, T/C",[24],6.95%
same,"viability, T/C",[25],60.3%
same,"viability, T/C",[26],75.7%
same,"viability, T/C",[27],54%
same,"viability, T/C",[28],37.7%
same,"viability, T/C",[29],22.2%
same,"viability, T/C",[30],6.64%
same,"viability, T/C",[31],57.5%
same,"viability, T/C",[32],54.8%
same,"viability, T/C",[33],45.9%
same,"viability, T/C",[34],34.8%
same,"viability, T/C",[35],19.4%
same,"viability, T/C",[36],5.83%
CCCS(=O)(=O)Nc1ccc(F)c(C(=O)c2c[nH]c3ncc(-c4ccc(Cl)cc4)cc23)c1F + CC(Nc1ccc2c(c1)OCCn1cc(N3C(=O)OCC3C(F)F)nc1-2)C(N)=O,IC50,second compound 0.00316 µM,6950 nM
same,IC50,second compound 0.01 µM,5960 nM
same,IC50,second compound 0.0316 µM,6550 nM
same,IC50,second compound 0.1 µM,5520 nM
same,IC50,second compound 0.316 µM,4220 nM
same,IC50,second compound 1 µM,3900 nM
same,"viability, T/C",[5],103%
same,"viability, T/C",[6],131%
same,"viability, T/C","second compound 0.00316 µM, first compound 0.316 µM",107%
same,"viability, T/C","second compound 0.00316 µM, first compound 1 µM",92.7%
same,"viability, T/C","second compound 0.00316 µM, first compound 3.16 µM",90.5%
same,"viability, T/C","second compound 0.00316 µM, first compound 10 µM",32.7%
same,"viability, T/C",[11],106%
same,"viability, T/C",[12],93.2%
same,"viability, T/C","second compound 0.01 µM, first compound 0.316 µM",117%
same,"viability, T/C","second compound 0.01 µM, first compound 1 µM",90.5%
same,"viability, T/C","second compound 0.01 µM, first compound 3.16 µM",78.5%
same,"viability, T/C","second compound 0.01 µM, first compound 10 µM",27.5%
same,"viability, T/C",[17],95.6%
same,"viability, T/C",[18],111%
same,"viability, T/C","second compound 0.0316 µM, first compound 0.316 µM",95.2%
same,"viability, T/C","second compound 0.0316 µM, first compound 1 µM",105%
same,"viability, T/C","second compound 0.0316 µM, first compound 3.16 µM",93%
same,"viability, T/C","second compound 0.0316 µM, first compound 10 µM",24.8%
same,"viability, T/C",[23],85.8%
same,"viability, T/C",[24],73.5%
same,"viability, T/C","second compound 0.1 µM, first compound 0.316 µM",81.8%
same,"viability, T/C","second compound 0.1 µM, first compound 1 µM",86.3%
same,"viability, T/C","second compound 0.1 µM, first compound 3.16 µM",79.4%
same,"viability, T/C","second compound 0.1 µM, first compound 10 µM",18.6%
same,"viability, T/C",[29],69.6%
same,"viability, T/C",[30],68.2%
same,"viability, T/C","second compound 0.316 µM, first compound 0.316 µM",78.4%
same,"viability, T/C","second compound 0.316 µM, first compound 1 µM",84.5%
same,"viability, T/C","second compound 0.316 µM, first compound 3.16 µM",61.8%
same,"viability, T/C","second compound 0.316 µM, first compound 10 µM",15.1%
same,"viability, T/C",[35],54%
same,"viability, T/C",[36],54.1%
same,"viability, T/C","second compound 1 µM, first compound 0.316 µM",66.1%
same,"viability, T/C","second compound 1 µM, first compound 1 µM",55.5%
same,"viability, T/C","second compound 1 µM, first compound 3.16 µM",63.4%
same,"viability, T/C","second compound 1 µM, first compound 10 µM",11.1%
